According to BigSolDB 2.1:

Cc1c(-c2ccccc2)oc2c(C(=O)O)cccc2c1=O
solubility (mole fraction)
Conditions	in DMF	in THF	in acetone	in acetonitrile	in ethanol	in ethyl acetate	in isobutanol	in methanol	in methyl acetate	in n-butyl acetate
278.15 K	0.0129	0.013	0.0019	0.000211	0.00108	0.00088	0.000942	0.000344	0.000929	0.000947
283.15 K	0.0165	0.0154	0.00219	0.000247	0.00128	0.00114	0.00118	0.000449	0.00112	0.0011
288.15 K	0.0213	0.0183	0.00259	0.00031	0.00153	0.00141	0.00143	0.000587	0.00145	0.00125
293.15 K	0.0259	0.0217	0.00301	0.00037	0.00181	0.00178	0.00175	0.000767	0.0019	0.00141
298.15 K	0.0321	0.0261	0.0034	0.000458	0.00216	0.00221	0.00214	0.00102	0.00245	0.00158
303.15 K	0.0399	0.0313	0.00381	0.000542	0.00258	0.00272	0.00261	0.00136	0.00302	0.00178
308.15 K	0.0485	0.0371	0.00438	0.000641	0.00304	0.00341	0.00313	0.00181	0.00382	0.00197
313.15 K	0.0587	0.0443	0.00489	0.000768	0.00363	0.00416	0.00376	0.00242	0.00473	0.00221
318.15 K	0.072	0.0517	0.00546	0.000893	0.00431	0.00494	0.00458	0.00316	0.0057	0.00242
323.15 K	0.0889	0.061	0.00617	0.00103	0.00512	0.00594	0.0056	0.00419	0.00673	0.00268
